System: Cell line HT-29 derived from colon tumor
Experiment: Growth inhibition against colon tumor cell line (MTT method)
Type: cell-based
Details: 72 hours, control 0.337 ± 0.055
Method: Cell line HT-29 derived from colon tumor was inoculated into McCoy's SA medium supplemented with 10% fetal calf serum comprising penicillin 50 U/ml, streptomycin 50 μg/ml and HEPES 10 mM on 96-well cell culture plate (7,500 cells/well). The cells were pre-incubated in an atmosphere of 95% air and 5% carbon dioxide at 37° C. for 24 hours. […] The plate was incubated further 72 hours. The cell number in the each well was determined by the MTT method based on the difference of the optical density.

C[C@H](CC(=O)O)OC(=O)C[C@@H](C)O [R-dimer, dimer of R(−)-β-hydroxybutyric acid]
cell number by MTT method (optical density) (0.1 mM): 0.288 ± 0.019 | cell number by MTT method (optical density) (0.5 mM): 0.251 ± 0.029 | cell number by MTT method (optical density) (1 mM): 0.248 ± 0.029 | cell number by MTT method (optical density) (2 mM): 0.237 ± 0.019

C[C@@H](O)CC(=O)O [R-β-hydroxy-butyric acid, R(−)-β-hydroxy-butyric acid]
cell number by MTT method (optical density) (0.1 mM): 0.271 ± 0.028 | cell number by MTT method (optical density) (0.5 mM): 0.264 ± 0.019 | cell number by MTT method (optical density) (1 mM): 0.272 ± 0.015 | cell number by MTT method (optical density) (2 mM): 0.284 ± 0.023

C[C@H](O)CC(=O)O [S-β-hydroxy-butyric acid, S(+)-β-hydroxybutyric acid]
cell number by MTT method (optical density) (0.1 mM): 0.257 ± 0.035 | cell number by MTT method (optical density) (0.5 mM): 0.255 ± 0.013 | cell number by MTT method (optical density) (1 mM): 0.281 ± 0.017 | cell number by MTT method (optical density) (2 mM): 0.293 ± 0.022

CCCC(=O)O [butyric acid, reference compound]
cell number by MTT method (optical density) (0.1 mM): 0.234 ± 0.012 | cell number by MTT method (optical density) (0.5 mM): 0.243 ± 0.009 | cell number by MTT method (optical density) (1 mM): 0.250 ± 0.010 | cell number by MTT method (optical density) (2 mM): 0.200 ± 0.009
